Measured values: patent US6521267B1, “Tyrosinase inhibitors from plants” (Fytokem Prtoducts, Inc., priority 1998, dated 2003)

Tested on: tyrosinase (Sigma T-7755)
Experiment: tyrosinase assay: conversion of L-DOPA to DOPAquinone, monitored at 475 nm
Assay type: biochemical
Conditions: for Inhibition of tyrosinase enzyme step 2, 0.001% conc: ingredient at 0.001% conc; for Inhibition of tyrosinase enzyme step 2, 0.01% conc: ingredient at 0.01% conc; for Inhibition of tyrosinase enzyme step 2, 0.1% conc: ingredient at 0.1% conc; for Inhibition of tyrosinase enzyme step 2, 1% conc: ingredient at 1% conc; for INHIBITION OF ENZYME: comparison standard, 1% solution (solids present 1.0)
Method: The tyrosinase assay was based on methods previously published (Mason, H. S., (1948) J. Biol. Chem. 172, 83-86; Dawson, C. R. and Magee, R. J. (1955) Methods in Enzymology II 817-827 (Editors-in-chief S. P. Colowick and N. O. Caplan); Lerner, A. B. (1955) ibid 827-831; Bergmeyer, U. H. (1983) Methods of Enzymatic Analysis (Published by Verlag Chemie, Weinheim)). The protocol was as follows, scaled for the approximately twenty sample determinations:
(a) A buffer solution of pH 6.5 was prepared by dissolving 1.4 9 disodium monohydrogen phosphate (Na2HPO4) and 1.4 g monopotassium dihydrogen phosphate (KH2PO4) in pure water to make 200 mL.
(b) An enzyme solution of either 1.0 mg or 3.0 mg tyrosinase (Sigma T-7755) was prepared in 30 mL buffer and stored at 2° C. until use.
(c) A substrate solution was prepared by dissolving 0.10 g L-DOPA (L-3,4-dihydroxyphenyl-alanine, Sigma D-9661) in 100 ML buffer.
(d) The unfettered enzyme reaction rate was measured by mixing together 0.5 mL buffer solution and 0.5 mL substrate solution in twin acrylate mini-cuvettes (path 2.0 mm), and after observing the stability of the mixture, mixing in 0.25 mL enzyme solution to one cuvette. The formation of red DOPAquinone was monitored spectrophotometrically at 475 nm, at times 0, 1, 2 and 3 minutes.
(e) The effect of added substances on the enzyme reaction rate was measured by mixing together 0.5 mL buffer solution, 0.5 mL substrate solution and 0.25 mL test substance (at 1% strength in 50:50 butyleneglycol:water) in twin acrylate mini-cuvette. The reaction was tracked spectrophotometrically at 475 nm, reading at 0, 1, 2 and 3 minutes.
(f) The effect of test substances on reaction rate was expressed as inhibition (I) where I=100−[100 (trt absorbance change, 3 min)/100(control absorbance change, 3 min)].
Concentrations of substrate, enzyme or test substance can be varied as appropriate.
(§1) This assay duplicates rate-controlling steps in the human metabolic pathway to skin pigmentation. Pure hydroquinone in 1% solution was employed as a comparison standard.
as §1

Row | Inhibition of tyrosinase enzyme step 2, 0.001% conc (Table 4) [%] | Inhibition of tyrosinase enzyme step 2, 0.01% conc (Table 4) [%] | Inhibition of tyrosinase enzyme step 2, 0.1% conc (Table 4) [%] | Inhibition of tyrosinase enzyme step 2, 1% conc (Table 4) [%] | Inhibition of tyrosinase enzyme step 2, 0.001% conc (Table 6) [%] | Inhibition of tyrosinase enzyme step 2, 0.01% conc (Table 6) [%] | Inhibition of tyrosinase enzyme step 2, 0.1% conc (Table 6) [%] | Inhibition of tyrosinase enzyme step 2, 1% conc (Table 6) [%] | Enzymes reaction rate reduction @ 5 μg enzyme (5 μg enzyme, test substance at 1% strength) [%] | Enzymes reaction rate reduction @ 15 μg enzyme (15 μg enzyme, test substance at 1% strength) [%] | INHIBITION OF ENZYME (Table 3) | INHIBITION OF ENZYME (Table 5) | Structure (SMILES) | effect on tyrosinase in standard assays (in words) (constituents of TYROSTAT compositions)
1 | – | – | – | – | – | – | – | – | – | – | – | – | CC(O)CCO (stereo not drawn) [butanediol, 1,3-butanediol] | slightly inhibitory
2 | 23 | 82 | 100 | 100 | 23 | 82 | 100 | 100 | – | – | – | – | O=C1O[C@H]([C@@H](O)CO)C(O)=C1O [Ascorbic acid, L-ascorbic acid] | –
3 | <10 | <10 | 31 | 60 | <10 | <10 | 31 | 60 | 65 | 55 | 58-62% | 38-62% | Oc1ccc(O)cc1 [Hydroquinone, 1,4-dihydroxybenzene] | –
